Experimental data reported in patent US20200289434A1, “RAPIDLY IMPROVING ENDOTHELIAL FUNCTION, REDUCING ARTERIAL STIFFNESS AND REVERSING CALCIFICATION OF BLOOD VESSELS BY ADMINISTERING VITAMIN K” (KAYDENCE PHARMA AS, priority 2019, published 2020).
Values joined by “and” are separate entries in the source; they are usually repeats but may differ in a detail not shown here. Identical values can stand only once.

What was measured:
ApoE/LDLR−/− mice [1] = assay: Example 2: histological assessment of plaque size, composition and vessel wall area in BCA; assay type: in vivo; conditions: two months
Source text: Plaque size and composition as well as vessel wall area (VWA) in BCA-Histological assessment, cross-section method, BCA cross-sections: total 13000 slides, Photographed: 1214 slides
For the determination of atherosclerotic plaque area and composition BCA was dissected, fixed in 4% buffered formalin and embedded in paraffin. 5 μm-thick serial sections of BCA were collected from proximal, middle and distal parts of artery. Originally developed staining with Unna's orcein combined with Martius, Scarlet and Blue trichrome (OMSB), was applied on every tenth section (50 μm interval between each section) for visualization of collagen, elastin, fibrin, red blood cells and vascular smooth muscle cells within atherosclerotic plaque. The areas of particular components of atherosclerotic plaque as well as artery lumen and wall were determined after Columbus-based software processing (FIG. 1B) using a previously developed algorithm [Gajda M, Jasztal A, Banasik T, Jasek-Gajda E, Chlopicki S. Combined orcein and martius scarlet blue (OMSB) staining for qualitative and quantitative analyses of atherosclerotic plaques in brachiocephalic arteries in apoE/LDLR−/− mice. Histochem Cell Biol 2017. doi:10.1007/s00418-017-1538-81.

[2] = mouse, in vivo
ApoE/LDLR−/− mice [3] = assay: Example 3 second part: MRI assessment of Ach-induced response in BCA and LCA, older mice; assay type: in vivo; conditions: eight weeks, 24-week-old mice
Description: Magnetic resonance imaging (MRI) experiments were performed using a 9.4T scanner (BioSpec 94/20 USR, Bruker, Germany) located in the Department of Magnetic Resonance Imaging, Institute of Nuclear Physics, Polish Academy of Sciences in Krakow. During the experiment, mice were anaesthetized using isoflurane (Aerrane, Baxter Sp. z o. o., Poland, 1.7 vol %) in an oxygen and air (1:2) mixture and imaged in the supine position. Activity of the heart, respiration, and body temperature (maintained at 37° C. using circulating warm water) were monitored using a Monitoring and Gating System (SA Inc., Stony Brook, N.Y., USA).
Endothelial function was assessed based on vascular responses to acetylcholine (Ach) administration in brachiocephalic artery (BCA), left common carotid artery (LCA) (FIGS. 6 A and B) and abdominal aorta (AA) (FIG. 6C) as well as to responses to increase in flow (flow-mediated dilatation, FMD) in femoral artery (FA) (FIG. 6D) as described in Bar A, Skorka T, Jasinski K, Sternak M, Bartel Z, Tyrankiewicz U, et al. Retrospectively-gated MRI for in vivo assessment of endothelium-dependent vasodilatation and endothelial permeability in murine models of endothelial dysfunction. NMR Biomed 2016; 29(8):1088.; Sternak M, Bar A, Adamski M G, Mohaissen T, Marczyk B, Kieronska A, et al. The Deletion of Endothelial Sodium Channel α (αENaC) Impairs Endothelium-Dependent Vasodilation and Endothelial Barrier Integrity in Endotoxemia in Vivo. […]
Vasomotor response was examined by comparing two time-resolved 3D images of the vessels prior to and 25 minutes after intraperitoneal Ach administration (Sigma-Aldrich, Poznan Poland: 50 μl, 16.6 mg/kg), as well as prior to and 5 minutes after vessel occlusion. […] End-diastolic volumes of vessels were analyzed using ImageJ software 1.46r (NIH Bethesda, Md., USA) and scripts written in Matlab (MathWorks, Natick, Mass., USA). […]

## CC(C)=CCC/C(C)=C/CC/C(C)=C/CC/C(C)=C/CC/C(C)=C/CC/C(C)=C/CC/C(C)=C/CC1=C(C)C(=O)c2ccccc2C1=O [MK-7, menaquinone-7]
ApoE/LDLR−/− mice [1]; either low or high dose
  effect on plaque size: did not result in a beneficial effect
  plaque and lumen area expressed as percent of IWA: did not change
ApoE/LDLR−/− mice [1]; lower dose, not visible for entire vessel
  internal wall area (IWA): decreased only in the middle part of the vessel
ApoE/LDLR−/− mice [1]; similarly after low and high dose
  decrease in lipid core expressed as percent of plaque: about 17%
ApoE/LDLR−/− mice [1]; similarly for low (0.03) and high (10 mg/kg b.w./day) dose
  decrease in vessel wall area (VWA) of BCA: about 5%
ApoE/LDLR−/− mice [1]; treated vs untreated groups
  content of collagen in plaque: lack of differences
[2]
  vitamin K1 and K1 2,3-epoxide plasma concentration: tent to decrease
[2]; 5 mg/kg/day
  concentration of MK4 2,3-epoxide in plasma: maintained at similar level
  plasma concentration of K2 (MK-7): dose-dependent increase
  plasma concentration of MK-4: dose-dependent increase
ApoE/LDLR−/− mice [3]; high dose 10 mg/kg b.w/day
  change in volume of BCA after Ach injection: 3.12%
  change in volume of LCA after Ach injection: 4.45%
ApoE/LDLR−/− mice [3]; low dose 0.03 mg/kg b.w/day, listed as vitamin K2, 0.03 mg/kg/day
  change in volume of LCA after Ach injection: ~−3% and −3.92%
